Data published in publication PMC8474119, “Discovery and SAR Evolution of Pyrazole Azabicyclo[3.2.1]octane Sulfonamides as a Novel Class of Non-Covalent N-Acylethanolamine-Hydrolyzing Acid Amidase (NAAA) Inhibitors for Oral Administration” (Journal of Medicinal Chemistry, 2021).

Key:
[1] = Aqueous kinetic solubility assay; format: physicochemical; settings: PBS buffer, pH 7.4, n = 3
Procedure: The aqueous kinetic solubility was determined from a 10 mM DMSO stock solution of test compound (39 or 50) in PBS buffer at pH 7.4. The study was performed by incubating an aliquot of 10 mM DMSO stock solution in PBS (pH 7.4) to a target concentration of 250 μM (2.5% DMSO). The incubation was carried out under shaking at 25 °C for 24 h, followed by centrifugation at 21,100g for 30 min. The supernatant was further diluted (4:1) with CH3CN, and the dissolved test compound was quantified by UV at 215 nm on a Waters ACQUITY UPLC-MS system consisting of a single quadrupole detector (SQD) mass spectrometer equipped with an electrospray ionization interface and a photodiode array detector (PDA) from Waters Inc. (Milford, MA, USA). Electrospray ionization in positive mode was used in the mass scan range 100–500 Da. The PDA range was 210–400 nm. The analyses were run on an ACQUITY UPLC BEH C18 column (50 × 2.1 mm ID, particle size 1.7 μm) with a VanGuard BEH C18 precolumn (5 × 2.1 mm ID, particle size 1.7 μm), using 10 mM NH4OAc in H2O at pH 5 adjusted with AcOH (A) and 10 mM NH4OAc in CN–H2O (95:5) at pH 5 (B) as the mobile phase.

[2] = Plasma stability assay, rat plasma; format: in vitro ADME; settings: for % compound remaining at last time-point, plasma: 2.0 μM, 120 min; for half-life at 2 μM: n ≥ 3, read-out: plasma t1/2
Procedure: (§1) 10 mM DMSO stock solution of test compound (39 or 50) was diluted 50-fold with DMSO/H2O (1:1) and incubated at 37 °C for 2 h with mouse or rat plasma added with 5% DMSO (preheated at 37 °C for 10 min). The final compound’s concentration was 2.0 μM. At each time point (0, 5, 15, 30, 60, and 120 min), 50 μL of incubation mixture was diluted with 150 μL cold CH3CN spiked with 200 nM of warfarin, as the internal standard, followed by centrifugation at 3.270g for 20 min. The supernatant was further diluted with H2O (1:1) and analyzed by LC–MS/MS on a Waters ACQUITY UPLC-MS TQD system consisting of a triple quadrupole detector (TQD) mass spectrometer equipped with an electrospray ionization interface and a photodiode array eλ detector (PDA) from Waters Inc. (Milford, MA, USA). Electrospray ionization was applied in positive mode. Compound-dependent parameters as MRM transitions and collision energy were developed for each compound. The analyses were run on an ACQUITY UPLC BEH C18 (50 × 2.1 mm ID, particle size 1.7 μm) with a VanGuard BEH C18 precolumn (5 × 2.1 mm ID, particle size 1.7 μm) at 40 °C, using H2O + 0.1% HCOOH (A) and CH3CN + 0.1% HCOOH (B) as the mobile phase. The percentage of the test compound remaining at each time point relative to t = 0 was calculated by the response factor on the basis of the internal standard peak area. The percentage of test compound versus time was plotted and fitted by GraphPad Prism (GraphPad Software, Version 5 for Windows, CA, USA, www.graphpad.com) to estimate the compound’s half-life (t1/2), which was reported as mean value along with the standard deviation (n = 3).

[3] = Plasma stability assay, mouse plasma; format: in vitro ADME; settings: for % compound remaining at last time-point, plasma: 2.0 μM, 120 min; for half-life at 2 μM: n ≥ 3, read-out: plasma t1/2
Procedure: as §1

Compound	solubility kinetic at 24 h [1] [µM]	% compound remaining at last time-point, plasma [2] [%]	half-life at 2 μM [2] [h]	% compound remaining at last time-point, plasma [3] [%]	half-life at 2 μM [3] [h]
CCCCc1ccc(O[C@H]2C[C@H]3CC[C@@H](C2)N3S(=O)(=O)c2c(C)n[nH]c2C)cc1 [Compound 39, (1R,3r,5S)-3-(4-Butylphenoxy)-8-((3,5-dimethyl-1H-pyrazol-4-yl)sulfonyl)-8-azabicyclo[3.2.1]octane]	< 1	93	> 2	93	> 2
CCOCc1cnc(O[C@H]2C[C@H]3CC[C@@H](C2)N3S(=O)(=O)c2c(C)n[nH]c2C)cn1 [Compound 50, (1R,3r,5S)-8-((3,5-Dimethyl-1H-pyrazol-4-yl)sulfonyl)-3-((5-(ethoxymethyl)pyrazin-2-yl)oxy)-8-azabicyclo[3.2.1]octane]	> 250	93	> 2	95	> 2
